Experimental data published in patent US9636323B2, “Method of treating cancer that overexpresses TopBP1” (Baylor College of Medicine, priority 2014, dated 2017).
“And” between values parts separate entries of the source, which are not always exact repeats. Equal entries are not always repeated. Where two headings read alike, the source gives them in different places.

Experiments:
[1] = tested on: E2F1 transcriptional activity; assay: E2F1 activity reporter assay (p14Arf promoter dual luciferase) in HEK293 cells; type: cell-based, human
Method: (§1) E2F1 activity reporter assay using a p14^ARF promoter-luciferase plasmid was performed as described (Liu et al. 2003). p53 activity reporter assay was performed by a p21^Cip promoter-luciferase plasmid (Liu et al. 2009). p73 activity reporter assay was performed using a pGL3-Bax promoter-luciferase plasmid (Liu et al. 2011). pRL-TK (Renilla luciferase, Promega) was used in all experiments for controlling transfection efficiency. The firefly and Renilla luciferase activities were measured by Dual-Luciferase Reporter System (Promega), and the firefly luciferase activities were normalized against the Renilla activity. All assays were performed in triplicate.

[2] = tested on: mutp53(R273H) gain of function; assay: p73 activity reporter (Bax promoter-luciferase) assay in p53-null H1299 cells expressing p73α and mutp53(R273H); type: cell-based, human
Method: as §1

[3] = tested on: E2F1, p63/p73 and NF-Y target genes; assay: Real-time RT-PCR of E2F1, p63/p73 and NF-Y target genes in MDA-MB468 cells; type: cell-based, human; settings: 2.5 μM, 5 h
Method: RNA was isolated using TRIzol method (Invitrogen). Quantitative reverse transcription-PCR (RT-PCR) was performed in triplicate using the forward and reverse primers ((Chowdhury et al. 2014) Supplementary FIG. 18) on an MX3005P thermal cycler using SYBR green dye method to observe the progress of the reactions with ROX dye, which was added as reference. GAPDH was run in parallel with target genes.

[4] = tested on: MDA-MB231 cells; assay: MTS assay, MDA-MB231; type: cell-based, human
Method: (§2) Then 50 μl of MTS reagent (CellTiter 96® AQueous One Solution Cell Proliferation Assay, Promega) was added to each well, covered from light and incubated for 1 h at 37.0 incubator to develop purple color. The samples were measured at 490 nm in a plate reader (BioTek Synergy HT) against a blank 48-well plate. Each assay was done in triplicate.

[5] = tested on: MCF7 cells; assay: MTS assay, MCF7; type: cell-based, human; settings: increasing concentrations, 5 h, versus MCF10A
Method: as §2

[6] = tested on: MDA-MB468 cells; assay: Caspase 3/7 activity assay, MDA-MB468; type: cell-based, human
Method: (§3) The apoptosis was measured by Caspase-Glo® 3/7 assay (Promega) following the manufacturer's protocol. The cells were plated in 6-well tissue culture dish (10^4 cells/well) (BD Falcon) in respective media. […] The blank reactions were prepared per direction. Equal volume of Caspase-Glo® 3/7 reagents were applied to each well. A luminometer (Sirius) was used to quantitate luminescence.
(§4) To prepare TopBP1 knockdown stable cell line, MDA-MB468 cells were infected with lentivirus expressing TopBP1 shRNA (Liu et al. 2011) as well as scramble shRNA, separately. The infected cells were grown for 48 h followed by selection with puromycin (2 μg/ml). After selection, the knockdown was confirmed by Western blotting before further experiments. Two different pLKO-shTopBP1 (#1 and #2) constructs (Open Biosystems, RHS4533-NM_007027) were used to deplete TopBP1 in MDA-MB468 cells. Additional two pSuper-shTopBP1 constructs (Liu et al. 2004) were used to knock down TopBP1 in HEK293 cells. Two pSuper-shE2F1 constructs were used to deplete E2F1: shE2F1#1 (described previously (Liu et al. 2004)), and shE2F1#2 (target sequence 5′-[…]-3′). The target sequence for pSuperior-shE2F1 is the same as pSuper-shE2F1#1. To deplete p63, shp63alpha pLKO.1-puro (from Addgene, 19120) was used. TP73 MISSION shRNA (shp73 pLKO.1-puro) was purchased from Sigma (TRCN00002722587).

[7] = tested on: MDA-MB468 cells; assay: Mammosphere formation; type: cell-based, human; settings: 2.5 μM, 11 days
Method: For in vitro mammosphere culture, ˜5000 MDA-MB468 cells/well were seeded into a Ultra-low Adherent 6-well plate (Stem Cell Technologies) with 2 ml/well fresh complete MammoCult™ medium (Stem Cell Technologies) containing the MammoCult® Basal Medium, MammoCult® Proliferation Supplement, 4 μg/ml Heparin (Stem Cell Technologies) and fresh 0.48 μg/ml Hydrocortisone. Cells were incubated in a 5% CO2 incubator at 37° C. for 7-11 days. […] Each treatment was done in triplicate.

[8] = tested on: RPMI 8226 myeloma cell line; assay: MTS assay, RPMI 8226; type: cell-based, human; settings: Calcein AM 2.5 μM, 12 h, mutp53(E285K)
Method: as §2

[9] = tested on: BT549 cells; assay: Caspase-Glo 3/7 activity assay, BT549; type: cell-based, human; settings: for Calcein AM-induced apoptosis: 17 h
Method: as §3, §4

[10] = tested on: BT549 cells; assay: Trypan blue exclusion viability assay, BT549; type: cell-based, human
Method: as §4

[11] = tested on: NCI-60 cancer cell lines; settings: NCI-DTP data, cited from earlier work
[12] = tested on: BT549; settings: NCI-DTP database; cited from earlier work
[13] = tested on: Hs-578T; settings: NCI-DTP database; cited from earlier work
[14] = tested on: mice; settings: cited from earlier work

SMILES: CC(=O)OCOC(=O)CN(CC(=O)OCOC(C)=O)Cc1cc2c(cc1OC(C)=O)Oc1cc(OC(C)=O)c(CN(CC(=O)OCOC(C)=O)CC(=O)OCOC(C)=O)cc1C21OC(=O)c2ccccc21 [Calcein AM, Calcein AM (acetoxymethyl ester)]
- E2F1 transcriptional activity [1]: enhanced
- inhibition of p73 transcriptional activity by mutp53(R273H) [2]: blocked
- E2F1 pro-apoptotic target genes (p73, Apaf1, caspase 3) [3]: up-regulated
- NF-Y target genes (Cdk1, Cdc25C, Cyclin A2) [3]: down-regulation
- p63/p73 target genes (Bax, Noxa, Hdm2) [3]: up-regulation
- induction of E2F1, p63/p73 and NF-Y target gene expression ([3]; TopBP1-depleted cells): less significant
- anti-apoptotic activity of overexpressed TopBP1 (doxorubicin resistance) ([4]; AdTopBP1-infected cells, doxorubicin, Calcein AM 2.5 μM): blocked
- proliferation (MTS) ([4]; increasing concentrations, 5 h, versus MCF10A): preferentially inhibited the proliferation
- proliferation (MTS) [5]: preferentially inhibited the proliferation
- apoptosis (caspase 3/7 activity) ([6]; 2.5 μM overnight): induced apoptosis
- apoptosis (caspase 3/7 activity) ([6]; 0.1 and 0.5 μM, 16 h): not
- apoptosis (caspase 3/7 activity) ([6]; 2.5 and 5 μM, 16 h): induced
- effect of Calcein AM on apoptosis (caspase 3/7) ([6]; TopBP1-depleted cells, 2.5 μM overnight): mitigated the effect
- mammosphere formation [7]: blocked
- doxorubicin sensitivity (MTS) [8]: sensitized cells to doxorubicin
- concentration at which apoptosis was induced ([9]; 16 h): ≥ 1 µM
- Calcein AM response, caspase activation ([9]; E2F1 depleted by two shRNA constructs, 2.5 μM, 16 h): attenuated
- Calcein AM-induced apoptosis ([9]; p63 depleted, 2.5 μM): decreased
- Calcein AM-induced apoptosis ([9]; p73 depleted, 2.5 μM): decreased
- Calcein AM response, viability assay ([10]; E2F1 depleted by two shRNA constructs, 2.5 μM, 20 h): attenuated
- living cells compared with scrambled shRNA ([10]; p63- and p73-depleted cells, 2 μM, 15 h): more living cells
- GI50 ([11]; read-out: average GI50 over all 60 cell lines): 662 nM
- GI50 ([11]; read-out: highest GI50 of the 60 cell lines): 11000 nM
- GI50 ([11]; read-out: lowest GI50 of the 60 cell lines): 10 nM
- GI50 [12]: < 400 nM and 270 nM
- GI50 [13]: < 400 nM
- oral LD50 ([14]; oral): 17 g/kg
- percutaneous LD50 ([14]; percutaneous): 5 g/kg
